Data: patent EP0047977A2, “Cephalosporin derivatives, process for their preparation, pharmaceutical compositions containing them and their use” (CIBA-GEIGY AG, priority 1980, dated 1982)
Values after ≈ are worked out from the molar mass of the structure shown.

Key:
[1] = test system: Streptococcus pyogenes Aronson; experiment: Antibiotic activity in vitro, agar dilution method in DST agar (MIC); format: cell-based
[2] = test system: Clostridium perfringens (anaerob); experiment: microbe, parasite or virus in culture; format: cell-based
[3] = test system: Escherichia coli 205 K 1075; experiment: Chemotherapeutic efficacy in vivo against systemic infection in the mouse (ED50); conditions: 205K1075, sc; s.c.; systemic infection with Escherichia coli 205 K 1075 in female SPF, MF2 mice
Excerpt: (§1) B. Die chemotherapeutische Wirksamkeit in vivo gegen systemische Infektionen in weiblichen SPF, MF2 Mäusen wurde nach der Methode von Zak, 0., et al., 1979, Drugs Exptl. Clin. Res. 5, 45-59, ermittelt. Die gefundenen ED50-Werte in Milligramm Substanz pro Kilogramm Maus (mg/kg) gegen eine Anzahl von Mikroorganismen werden für die subcutan (s.c.) applizierten Testverbindungen in der Tabelle 2 angegeben.

[4] = test system: Pseudomonas aeruginosa ATCC 12055; experiment: as above; conditions: ATCC12055, sc; s.c.; systemic infection with Pseudomonas aeruginosa ATCC 12055 in female SPF, MF2 mice
Excerpt: as §1

[5] = test system: Pseudomonas aeruginosa ATCC 12055; experiment: Antibiotic activity in vitro, agar dilution method in DST agar (MIC); format: cell-based; conditions: ATCC12055
Escherichia coli 205 = experiment: as above; format: cell-based

Row | SMILES | MIC [1] [µg/mL] | MIC [2] [µg/mL] | ED50 [3] [mg/kg] | ED50 [4] [mg/kg] | MIC [5] [µg/mL] | MIC (Escherichia coli 205) [µg/mL]
1 | CO/N=C(\C(=O)N[C@@H]1C(=O)N2C(C(=O)[O-])=C(C[n+]3cccc(Br)c3)CS[C@H]12)c1nsc(N)n1 [Verbindung 5, 7β-[2-(5-Amino-1,2,4-thiadiazol-3-yl)-2-Z-methoxyiminoacetamido]-3--(3-brompyridiniomethyl)-3-cephem-4-carboxylat] | 0.05 (≈ 0.0902 µM) | 0.01 (≈ 0.018 µM) | 0.9 | 10 to 30 | 0.5 (≈ 0.902 µM) | 0.1 (≈ 0.18 µM)
2 | Cn1ccc[n+]1CC1=C(C(=O)[O-])N2C(=O)[C@@H](NC(=O)/C(=N\OC(C)(C)C(=O)O)c3nsc(N)n3)[C@H]2SC1 [Verbindung 3, 7ß-[2-(5-Amino-1,2,4-thiadiazol-3-yl)-2-Z-2-carboxyprop-2-yloxy-iminoacetamido]-3-(2-methyl-1-pyrazoliomethyl)-3-cephem-4-carboxylat] | 0.5 (≈ 0.908 µM) | 0.05 (≈ 0.0908 µM) | 5 | 10 | 2 (≈ 3.63 µM) | 0.5 (≈ 0.908 µM)
3 | CO/N=C(\C(=O)N[C@@H]1C(=O)N2C(C(=O)[O-])=C(C[n+]3ccc(C(=O)O)cc3)CS[C@H]12)c1nsc(N)n1 [Verbindung 1, 7ß-[2-(5-Amino-1,2,4-thiadiazol-3-yl)-2-Z-methoxyiminoacetamido]-3-(4-carboxypyridiniomethyl)-3-cephem-4-carboxylat] | 0.1 (≈ 0.192 µM) | – | 0.9 | 6 | 1 (≈ 1.92 µM) | 0.05 (≈ 0.0962 µM)
4 | CO/N=C(\C(=O)N[C@@H]1C(=O)N2C(C(=O)[O-])=C(C[n+]3cccn3C)CS[C@H]12)c1nsc(N)n1 [Verbindung 4, 7β-[2-(5-Amino-1,2,4-thiadiazol-3-yl)-2-Z-methoxyiminoacetamido]-3-(2-methyl-1-pyrazoliomethyl)-3-cephem-4-carboxylat] | 0.1 (≈ 0.209 µM) | – | 2.4 | 30 | 0.5 (≈ 1.04 µM) | 0.1 (≈ 0.209 µM)
5 | CC(C)(O/N=C(\C(=O)N[C@@H]1C(=O)N2C(C(=O)[O-])=C(C[n+]3cccc(CC(=O)O)c3)CS[C@H]12)c1nsc(N)n1)C(=O)O [Verbindung 2, 7β-[2-(5-Amino-1,2,4-thiadiazol-3-yl)-2-Z-2-carboxyprop-2-yloxy-iminoacetamido]-3-(3-carboxymethylpyridiniomethyl)-3-cephem-4-carboxylat] | 1 (≈ 1.65 µM) | 0.1 (≈ 0.165 µM) | 2 | ≥ 30 | 0.5 (≈ 0.826 µM) | 1 (≈ 1.65 µM)
6 | CO/N=C(\C(=O)N[C@@H]1C(=O)N2C(C(=O)[O-])=C(C[n+]3ccc(CO)cc3)CS[C@H]12)c1nsc(N)n1 [Verbindung 6, 7ß-[2-(5-Amino-1,2,4-thiadiazol-3-yl)-2-Z-methoxyiminoacetamido]-3-(4-hydroxymethylpyridiniomethyl)-3-cephem-4-carboxylat] | – | 0.01 (≈ 0.0198 µM) | – | 3 to 10 | 0.1 (≈ 0.198 µM) | 0.05 (≈ 0.0989 µM)
